In brackets after ≈: the same amount, converted by molar mass.
Key:
[1] = in vitro; design: Viability of infected HeLa host cells, resazurin conversion, bulk resorufin fluorescence relative to DMSO; settings: human, hela cells; bulk resorufin, mean of 3
[2] = system: T1, CTL2-GFP (C. trachomatis L2/434/Bu, GFP-expressing); experiment: microbe, parasite or virus in culture; design: C. trachomatis growth in HeLa, dose-response, mean of bulk GFP fluorescence and imaged total inclusion area; settings: Chlamydia trachomatis, HeLa, 28.5 h; mean of GFP and inclusion area
T1 construct: L2/434/Bu, GFP-expressing
Description: (§1) We screened a library of 36,785 small molecules displaying drug-like properties and covering a wide chemical space (Fig 1A and S2A Data). In this process, we also complemented the assay described above with an imaging-based readout (Fig 1B). After measurements of bulk GFP and resorufin fluorescence, cells were fixed, stained with the DNA dye Hoechst, and imaged at a high-content imaging platform to detect chlamydial inclusions (GFP) and host cell nuclei (Hoechst). The total area and number of inclusions in individual wells and the number of nuclei then served as additional proxies for chlamydial growth and host cell viability. […] MICs were calculated as described above.

[3] = system: T1, CTL2-GFP (C. trachomatis L2/434/Bu, GFP-expressing); experiment: microbe, parasite or virus in culture; design: species or system HeLa; C. trachomatis growth in HeLa, dose-response, mean of bulk GFP fluorescence and imaged total inclusion area; settings: Chlamydia trachomatis, 28.5 h; mean of GFP and inclusion area
Description: as §1

[4] = system: HeLa; settings: bulk resorufin, single well, 28.5 h, 10 µM, Bulk resorufin fluorescence
[5] = in vitro; settings: human, hela cells, % viability

CN(C(=O)c1ccc(Cl)c(Cl)c1)[C@H]1CCC[C@H]1N1CCCC1 [c12e]
viability at 28.5 h, 0.000416667 µM [1]: 93%
viability at 28.5 h, 0.00125 µM [1]: 89.3%
viability at 28.5 h, 0.00375 µM [1]: 91.4%
viability at 28.5 h, 0.0123333 µM [1]: 89%
viability at 28.5 h, 0.037 µM [1]: 88.9%
viability at 28.5 h, 0.111 µM [1]: 92.8%
viability at 28.5 h, 0.333 µM [1]: 88.7%
viability at 28.5 h, 1 µM [1]: 89%
viability at 28.5 h, 3 µM [1]: 85.2%
viability at 28.5 h, 10 µM [1]: 92.7%
viability at 28.5 h, 30 µM [1]: 82.8%
IC50 [2]: 1.02 µM
MIC [3]: 1.7 µM (≈ 0.581 µg/mL)

CC(Cc1nc(-c2nccn2C)cs1)n1cc(Cl)cn1 (stereo not shown) [c14e]
viability at 28.5 h, 0.000416667 µM [1]: 104%
viability at 28.5 h, 0.00125 µM [1]: 110%
viability at 28.5 h, 0.00375 µM [1]: 107%
viability at 28.5 h, 0.0123333 µM [1]: 105%
viability at 28.5 h, 0.037 µM [1]: 103%
viability at 28.5 h, 0.111 µM [1]: 106%
viability at 28.5 h, 0.333 µM [1]: 103%
viability at 28.5 h, 1 µM [1]: 111%
viability at 28.5 h, 3 µM [1]: 108%
viability at 28.5 h, 10 µM [1]: 110%
viability at 28.5 h, 30 µM [1]: 110%
IC50 [2]: 1.03 µM
MIC [3]: 3.65 µM (≈ 1.12 µg/mL)

Nc1nn2c(c1Cc1c(Cl)cccc1Cl)OCCCC2 [CBK089335]
% viability [4]: 86.2%
viability at 28.5 h, 10 µM [5]: 91.8%

CC(C)[C@H](Cn1nc(C2CC2)ccc1=O)NC(=O)Cc1cccs1 [CBK282368]
% viability [4]: 88.6%
viability at 28.5 h, 10 µM [5]: 79.7%

C[C@@H]1CN2CCCC2CN1Cc1ccc(N(C)C)cc1 (stereo partly shown) [CBK285406]
% viability [4]: 102%
viability at 28.5 h, 10 µM [5]: 101%

O=C(NCCc1ccccc1)[C@H]1C=CCN1C(=O)c1ccccc1F [CBK285471]
% viability [4]: 104%
viability at 28.5 h, 10 µM [5]: 94%

C[C@@H](Cn1c(=O)oc2ccccc21)NC(=O)Cc1c[nH]c2ccccc12 [CBK284534]
% viability [4]: 88.7%
viability at 28.5 h, 10 µM [5]: 85.7%

COC(=O)c1ccc(CN2CC3CCCN3C[C@@H]2C)cc1 (stereo partly shown) [CBK285403]
% viability [4]: 103%
viability at 28.5 h, 10 µM [5]: 111%

N#CCCCN1CCN(c2nccnc2OC2CCCCC2)CC1 [CBK082841T]
% viability [4]: 107%
viability at 28.5 h, 10 µM [5]: 87.4%

C[C@H](Cn1c(C(F)(F)F)cc2cccnc21)NC(=O)c1ccco1 [CBK282933]
% viability [4]: 94.6%
viability at 28.5 h, 10 µM [5]: 91.5%

CCCC(=O)Nc1c(C)nn(C)c1N1CCNCC1 [CBK045924T]
% viability [4]: 102%
viability at 28.5 h, 10 µM [5]: 87.2%

CC(=O)c1sc(NC(=O)c2ccc(Cl)cc2)nc1C [CBK087686]
% viability [4]: 88.4%
viability at 28.5 h, 10 µM [5]: 86.7%

CCC(c1ccc(F)cc1)N(C)C(=O)Cn1cc(C(=O)NC2CCCCC2)ccc1=O (stereo not shown) [c44e]
viability at 28.5 h, 0.000416667 µM [1]: 93.4%
viability at 28.5 h, 0.00125 µM [1]: 91.8%
viability at 28.5 h, 0.00375 µM [1]: 93.8%
viability at 28.5 h, 0.0123333 µM [1]: 89.2%
viability at 28.5 h, 0.037 µM [1]: 90.8%
viability at 28.5 h, 0.111 µM [1]: 86.7%
viability at 28.5 h, 0.333 µM [1]: 87.7%
viability at 28.5 h, 1 µM [1]: 85.4%
viability at 28.5 h, 3 µM [1]: 87.9%
viability at 28.5 h, 10 µM [1]: 83.2%
viability at 28.5 h, 30 µM [1]: 87.2%
IC50 [2]: 5.83 µM

O=C(O)C1Cc2c([nH]c3ccccc23)C(c2ccc(Cl)cc2Cl)N1 (stereo not shown) [CBK115930]
% viability [4]: 96.2%
viability at 28.5 h, 10 µM [5]: 88.5%

O=C(O)CCCNc1ccc(S(=O)(=O)N2CCCCC2)cc1 [CBK261001]
% viability [4]: 90.5%
viability at 28.5 h, 10 µM [5]: 96.7%

O=C(NC[C@H]1CCCN(C(=O)c2cccnc2)C1)c1cccs1 [CBK284264]
% viability [4]: 90.3%
viability at 28.5 h, 10 µM [5]: 81.6%

CC(C)(C)OC(=O)N1CCC[C@@H]1C(=O)c1cccs1 [CBK284289]
% viability [4]: 90.7%
viability at 28.5 h, 10 µM [5]: 100%

O=C(CSc1nc2ccccc2[nH]1)Nc1ccccc1 [CBK073089]
% viability [4]: 91.6%
viability at 28.5 h, 10 µM [5]: 110%

NCCCOc1nc2ccccc2nc1C(F)(F)F [CBK115295]
% viability [4]: 109%
viability at 28.5 h, 10 µM [5]: 96.8%

From article PMC12040169 (PLOS Biology, 2025)
